This note sets out measurements from US20040072171A1, “Method for identifying compounds for modulating the activity of a tumor suppressor protein” (priority 2000, published 2004).

Assay [1] has as its system RT4-D6P2T cells. Description: Growth in culture vessels of merlin-inducible schwannoma clone 54. The class given is cell-based, rat. The conditions noted are these: for merlin-dependent growth inhibition in confluent cell cultures: merlin expression induced by doxycyclin. As for the experimental part:
Growth in culture vessels: To determine the growth curves, each well of a 24-well plate was seeded with 5×10^3 cells (in FIG. 7: 2.5×10^3), and determinations in triplicate were carried out every 24 hours (days). Definition of the growth conditions:
1. Low cell density (=logarithmic or exponential growth) means a cell density of 500 cells per cm^2 24 hours after seeding.
2. high cell density (=confluent growth condition) is defined as a cell density of 5×10^3 cells per cm^2 24 hours after seeding.
A. The soluble extracellular domain of CD44 sequestrates different ligands of exponentially growing and confluent cells. In each case 3 wells of a 24-well plate were seeded in triplicate with cells of clone 54, and the cells were treated with doxycyclin in order to induce the expression of merlin. On day 1 (logarithmically growing cells) and on day 3 (confluent cells), 10 ng/ml of soluble extracellular CD44 domain, either of the wild type (solCD44 or solCD44wt) or of the glycosaminoglycan-binding mutant (solCD44mut), were added. As the control, cells were treated in the same manner without doxycylin (since the addition of solCD44 was ineffective, only one group of data is shown).
B. Hyaluronate delays growth. In each case 3 wells of a 24-well plate were seeded in triplicate with cells of clone 54. Doxycyclin and hyaluronate (100 μg/ml) were added as stated.

In assay [2] the test system is Erk. Nature of the assay: PDGF-dependent phosphorylation of Erk. The class given is cell-based, rat. The conditions noted are these: clone 54, serum starvation, doxycyclin 8 hours, PDGF 5 ng/ml 5 minutes. As for the experimental part:
The cells were used to seed 6-well plates at Low density and 24-well plates at high density, with or without 0.8% methylcellulose. The cells remained free from serum for 24 hours and were treated with doxycyclin or left untreated for the last 8 hours. Then, the cells were stimulated for 5 minutes with 5 ng/ml PDGF and subsequently harvested in 2×Laemmli sample buffer, and the cell extracts were separated on a 10% SDS polyacrylamide gel. After the proteins had been transferred to the membrane, immunoblots were prepared with a phospho-Erk-specific antibody, and the bound antibody was detected. As a control for uniform loading of the separating gel with Erk, the membrane was stripped (freed from antibody) and anti-Erk-blotted.
C. […] Cells of clone 54 were plated at high or low cell density, left to grow for 24 hours with serum starvation and treated during the last 8 hours with doxycyclin (+) or left untreated (−). Where stated, the cells were treated for 2 hours with hyaluronidase (HAase, 5 U/μl), for 10 minutes with solCD44wt and/or for 5 minutes with PDGF (5ng/ml). The proteins of the lysates were separated by means of SDS-PAGE, and immune blots were carried out with phospho-Erk and Erk-specific antibodies. Clone 63 gave the same results as all the experiments in FIG. 6.
C. […] Cells were grown at low cell density and subsequently treated with doxycyclin with serum starvation cells as shown in FIG. 6C and assayed for the PDGF-dependent phosphorylation of Erk. Where stated, HA (100 μg/ml) was present for 10 minutes and PDGF (5 ng/ml) was present for 5 minutes. Experiments A to C were also carried out with clone 63, and similar results were obtained.

For assay [3], the system named is MEK. The conditions noted are these: merlin-inducible schwannoma cells, inhibitor for 2 or 12 hours. As for the experimental part:
Merlin-inducible schwannoma cells were plated onto 6-well plates at a density of 1.5×10^4 cells per well. 1 μg/ml doxycyclin was added where stated. After 16 hours, an MEK activation inhibitor (UO126; Promega) was added for 2 or 12 hours. 0 means no addition of inhibitor. The cells were harvested and solubilized in 2×Laemmli buffer, and the proteins were separated on a 10% SDS polyacrylamide gel. The proteins were transferred to a membrane, and an immune blot was carried out either with the polyclonal p27^Kip1 antibody C-19 from rabbit or with the Rb-specific antibody C-15 (Santa Cruz). The actin-specific antibody I-19 was used as loading control.

For assay [4], the system named is merlin. Nature of the assay: Immune blot for dephosphorylation of merlin in clone 54 lysates. The class given is cell-based, rat. Conditions: exponentially growing clone 54 cells, 8 hours doxycyclin. The method, then: For the immunoprecipitation of merlin, the cells were grown to confluence in 10 cm dishes, washed once with ice-cold PBS and then placed on ice and lysed with 1 ml lysis buffer per plate (50 mM Tris pH 7.4, 150 mM NaCl, 3 mM MgCl2, 0.5% NP-40, 1 mM PMSF, 10 μg/aprotinin ml, 10 μg/ml leupeptin). The DNA was sheared using a gauge 26 needle. The lysate was clarified by centrifugation, and the supernatant was incubated with 5 μg/ml merlin antibody at 4° C. overnight with gentle rotation. The reaction was subsequently treated with 30 μl of protein A agarose (dianova) and left to rotate for a further 3 hours at 4° C. The immune complexes were washed 4 times with cold lysis buffer and separated in 50 μl 2×Laemmli sample buffer. The protein was dissolved in a 10% SDS-PAGE, and immunoblots were generated with a merlin-specific antibody. For the treatment with calf intestine phosphatase (CIP), the lysate was incubated for 1 hour at 30° C. with 1 unit CIP prior to the immunoprecipitation. The coimmunoprecipitation of merlin and CD44 was carried out analogously, except that a different lysis buffer was used (20 mM Tris pH 7.4, 50 mM NaCl, 3 mM MgCl2, 0.5% NP40). The lysates were preincubated for 2 hours with protein A/G-agarose (Dianova) to remove unspecifically binding components, whereupon 5 μg/ml CD44 antibody 5G8 was added and the reaction was allowed to rotate overnight. […]

For assay [5], the system named is p27^Kip1. Nature of the assay: Induction of p27Kip1 in NIH3T3 cells (immune blot). The class given is cell-based, murine. Conditions: for level of cell division cycle inhibitor p27^Kip1: 30 minutes, hyaluronan 100 μg/ml or solCD44s 10 ng/ml. The method, then:
B. Induction of p27^Kip1 by treatment with hyaluronan. […] The next day, they were treated either with 100 μg/ml of hyaluronan or with 10 ng/ml solCD44s, and the plates were incubated for 30 minutes. The cells were harvested in 2×Laemmli sample buffer, and an immune blot with a polyclonal, p27^Kip1-specific antibody from rabbit was carried out (C-19, Santa Cruz). A polyclonal actin-antibody from goat (I-19, Santa Cruz) was used as loading control.

Assay [6] relates to NIH3T3 cells. Description: Growth rate of NIH3T3 cells. The class given is cell-based, murine. The conditions noted are these: 100 μg/ml, cell counts on the following 3 days. As for the experimental part: A. Growth rate of NIH3T3 cells after addition of hyaluronan. 24-well plates were seeded in triplicate with NIH3T3 cells at a density of 0.5×10^4 cells. Where stated, the culture medium was treated the next day with 100 μg/ml hyaluranon (Healon). The cell counts were determined on each of the following 3 days.

With hyaluronidase, the “merlin-dependent growth inhibition in confluent cell cultures” value in assay [1] was “prevents the inhibition of growth”. Further, in assay [2], the “PDGF-dependent phosphorylation of Erk / activation of merlin” value is listed as “destroys the ligand responsible for the activation of merlin”.

As to `N#CC(=C(/N)Sc1ccccc1N)/C(C#N)=C(/N)Sc1ccccc1N` [UO126], in assay [3], the “hypophosphorylated Rb” value is “increase” and the “level of p27^Kip1” value was “higher level”.

For the compound “solCD44wt: soluble extracellular CD44 domain of the wild type”, the “merlin-dependent growth inhibition in confluent cell cultures” value in assay [1] was “growth inhibition is nullified”. In addition, the “effect on growth of cells without doxycyclin” value in assay [1] (control cells without doxycyclin, 10 ng/ml) is given as “ineffective”. Also, in assay [1] (logarithmically growing cells, merlin induced by doxycyclin, soluble CD44 10 ng/ml), the “growth of cultures in the logarithmic growth phase” value was “growth inhibition is observed”. Also, the “phosphorylation state of merlin” value in assay [4] is listed as “Induced dephosphorylation of merlin”. Further, the “PDGF-dependent phosphorylation of Erk / activation of merlin” value in assay [2] was “nullifies blocking of the activation of merlin”. In addition, the “level of cell division cycle inhibitor p27^Kip1” value in assay [5] was “increased”.

On to hyaluronate, for which the “growth of clone 54 cells” value in assay [1] (hyaluronate 100 μg/ml, with doxycyclin) is “delays growth”. In addition, the “phosphorylation state of merlin” value in assay [4] is given as “Induced dephosphorylation of merlin”. Also, the “PDGF-dependent phosphorylation of Erk / activation of merlin” value in assay [2] is “blocks the PDGF-dependent phosphorylation of Erk”. In addition, the “growth rate of NIH3T3 cells” value in assay [6] is reported as “reduced their growth rate”. Besides, the “level of cell division cycle inhibitor p27^Kip1” value in assay [5] is listed as “increased”. Moreover, in assay [5] (hyaluronate-induced activation of merlin), the “induction of p21 and p27” value is “induction of p21 and p27”.
